# From publication PMC4967898, “Peptides interfering with protein-protein interactions in the ethylene signaling pathway delay tomato fruit ripening” (Scientific Reports, 2016)
# “Also recorded” adds a separate entry of the source.
# Columns and labels:
# [1] = test system: Arabidopsis EIN2-ETR1; details: proteins from Arabidopsis, cited from earlier work
# From the text: Studies on the related tomato proteins in this work emphasize that NOP-1 follows the same inhibitory mechanism also in other plants.
# [2] = target: T1, LeETR1 (Solanum lycopersicum, UniProt Q41342); experiment: MST NOP-1 binding to LeETR1; design: species or system tomato; details: 50 nM LeETR1 labeled with Alexa Fluor 488-Maleimide, NOP-1 3.8 nM to 31 μM, 50 mM Tris-HCl pH 8.0, 300 mM NaCl, 0.015% (w/v) Fos-Choline-16, 80% MST power, 1:1 stoichiometry, mean +/− standard deviation
# T1 construct: made in house; host or cells: E. coli
# T1 sequence (Q41342 1-754): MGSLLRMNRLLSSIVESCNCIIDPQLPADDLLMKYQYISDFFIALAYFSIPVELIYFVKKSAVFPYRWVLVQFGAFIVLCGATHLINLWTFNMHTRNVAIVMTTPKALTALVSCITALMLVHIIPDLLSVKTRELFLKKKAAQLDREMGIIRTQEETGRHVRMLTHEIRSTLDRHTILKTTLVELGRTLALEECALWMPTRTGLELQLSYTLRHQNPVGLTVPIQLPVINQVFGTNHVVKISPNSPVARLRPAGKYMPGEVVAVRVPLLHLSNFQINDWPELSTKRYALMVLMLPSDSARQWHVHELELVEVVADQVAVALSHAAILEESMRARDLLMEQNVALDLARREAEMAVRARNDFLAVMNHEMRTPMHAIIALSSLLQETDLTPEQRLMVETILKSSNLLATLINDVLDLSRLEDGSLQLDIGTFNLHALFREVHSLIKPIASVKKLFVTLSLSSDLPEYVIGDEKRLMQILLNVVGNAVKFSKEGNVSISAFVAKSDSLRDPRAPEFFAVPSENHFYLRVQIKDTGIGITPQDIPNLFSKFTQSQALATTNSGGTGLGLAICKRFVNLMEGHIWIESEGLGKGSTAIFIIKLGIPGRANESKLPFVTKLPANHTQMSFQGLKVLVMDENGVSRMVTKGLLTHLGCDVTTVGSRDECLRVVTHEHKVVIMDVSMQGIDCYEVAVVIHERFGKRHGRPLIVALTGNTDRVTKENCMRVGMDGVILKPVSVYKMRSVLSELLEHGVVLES
# From the text: To substantiate the inhibitory role of NOP-1 in LeEIN2-LeETR1 complex formation, NOP-1 binding to LeETR1 was studied by microscale thermophoresis (MST) as described in the Methods section. […] The Kd for the LeETR1-NOP1 interaction compares to the affinities of the EIN2-ETR1 interaction in Arabidopsis[10][11] and tomato (this work) emphasizing that the NOP-1 peptide can efficiently compete for ETR1 binding and disrupt EIN2-ETR1 complex formation.
# Analysis of LeETR1-LeEIN2 complex formation, NOP-1 binding to LeETR1 and determination of the respective dissociation constants Kd was performed by MST[33][34][35]. For protein-protein interaction studies LeETR1 was labeled with Alexa Fluor 488 succinimidyl-ester (Life Technologies) in a buffer containing 50 mM potassium phosphate pH 8.0, 300 mM NaCl and 0.015% (w/v) Fos-Choline-16 according to the manufacturer’s protocol. […]
# For quantification of NOP-1 binding to tomato receptor protein, recombinant LeETR1 was labeled with Alexa Fluor 488-Maleimide (Life Technologies) in a buffer containing 50 mM potassium phosphate pH 8.0, 300 mM NaCl, 0.015% (w/v) Fos-Choline-16 following the manufacturer’s protocol. […] Protein-peptide mixtures were transferred into glass capillaries and MST was measured with 80% MST power. […] The dissociation constant Kd was calculated according to a model assuming a 1:1 stoichiometry per binding partner.
smiles,measurement,setting,value
"CC(C)C[C@H](NC(=O)[C@H](CCCNC(=N)N)NC(=O)[C@H](CCCNC(=N)N)NC(=O)[C@H](CCCCN)NC(=O)[C@H](Cc1ccc(O)cc1)NC(=O)[C@H](CCCNC(=N)N)NC(=O)[C@H](CCCCN)NC(=O)[C@@H](N)CC(C)C)C(N)=O [NOP-1, LKRYKRRL-NH2]",effect on EIN2-ETR1 interaction in Arabidopsis,[1],reduced or abolished EIN2-ETR1 interaction; also recorded: able to disrupt interaction of EIN2 and ETR1
same,IC50,[1]; read-out: IC50 for inhibition of EIN2-ETR1 interaction in Arabidopsis,93 µM
same,Kd,[2],~0.15 µM
